For eleven molecules, GI50 and TGI results are on record in PubChem BioAssay (NCI).

Holding throughout (test): NCI tumour cell line growth inhibition, 48 h
For assay [1], the system named is HCT-15 colon.
For assay [2], the system named is HT29 colon.
The subject of assay [3] is LOX IMVI melanoma.
The test system of assay [4] is MALME-3M melanoma.
Assay [5] has as its system MDA-N.
For assay [6], the system named is NCI-H23 lung.
The subject of assay [7] is SF-268 CNS.
Assay [8] relates to SK-MEL-2 melanoma.
In assay [9] the test system is SNB-75 CNS.
Assay [10] has as its system SW-620 colon.

Molecules are shown by their SMILES. Several values for one entry are separate records, joined by “and”; a condition that tells them apart may be missing. Equal values may be shown once.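 Cultured in 96-well plates, cells were exposed to test compound for 48 hours across five concentrations. GI50 = concentration required for 50% inhibition of growth. At the TGI there is no net growth.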

Regarding `COC1C(OC(C)=O)CC(=O)OC(C)C/C=C/C=C\C(O)C(C)CC(CC=O)C1OC1OC(C)C(OC2CC(C)(O)C(OC(=O)CC(C)C)C(C)O2)C(N(C)C)C1O` (stereo unspecified), the GI50 in [1] is 36.4 µM and > 100 µM; in assay [3], 41.4 µM and > 100 µM. In addition, the TGI in [1], in assay [2], in [3], in assay [4], in [5] and in assay [6] was more than 100 µM in each case. For the same molecule, the TGI in assay [7], in assay [8], in assay [9] and in [10] was more than 100 µM in each case.
Regarding `FC(F)(F)C1(c2ccccc2)SCc2nc3ccccc3n21` (stereo unspecified), the TGI in assay [1], in [2], in [3], in assay [4], in assay [5] and in [6] was more than 100 µM each time. In addition, the TGI in assay [7], in assay [8], in assay [9] and in [10] was more than 100 µM throughout.
For the molecule `O=C1NC(N2CCCCC2)=N/C1=C\c1ccccc1`, the TGI in assay [1], in assay [2], in [3], in [4], in assay [5] and in assay [6] was more than 100 µM throughout. Also, the TGI in assay [7], in assay [8], in assay [9] and in [10] was more than 100 µM throughout.
On to `COc1ccc(Br)c(C=Nc2cccc3cc(OC)c(OC)cc23)c1`, for which the TGI in assay [1] was 16.4 µM; in assay [2], more than 71.8 µM; in [3], 19.2 µM; in [4], 99.6 µM; in assay [5] it was more than 41.4 µM; in [6], more than 100 µM. Also, the TGI was more than 100 µM in [7], more than 100 µM in assay [8], more than 100 µM in assay [9] and 51.1 µM in [10].
As for `COC(=O)/C=C/c1cnc2c(c1)oc(=O)n2C`, the TGI in assay [1], in assay [2], in [3], in assay [4], in assay [5] and in [6] was more than 100 µM in each case. The TGI in assay [7], in assay [8], in [9] and in [10] was more than 100 µM in each case.
As for `NS(=O)(=O)c1ccc(N2C(=O)C(=O)N(c3ccccc3)C2=S)cc1`, the TGI in assay [1], in [2], in [3], in assay [4], in [5] and in [6] was more than 100 µM each time. Moreover, the TGI in assay [7], in [8], in assay [9] and in assay [10] was more than 100 µM each time.
Turning to `COc1ccc2c(c1)C(=O)[C@@](Nc1ccc(C=O)cc1)(OC)[C@@](OC)(c1ccc([N+](=O)[O-])cc1)O2`, the TGI in assay [1], in assay [2], in assay [3], in [4], in [5] and in assay [6] was more than 10 µM in each case. The TGI in assay [7], in [8], in assay [9] and in assay [10] was more than 10 µM each time.
`O=C1CSC(c2cccc(Oc3ccccc3)c2)N1c1cccc(Cl)c1Cl` (stereo unspecified): the TGI came to 46.8 µM in assay [1]; 63.1 µM in assay [2]; 34.3 µM in assay [3]; 82.9 µM in [4]; 58.7 µM in assay [5]; 91.4 µM in assay [6]. For the same molecule, the TGI in [7] is 60 µM; in assay [8], 34.9 µM; in assay [9], more than 100 µM; in assay [10], more than 100 µM.
For `COc1c2occc2cc2ccc(=O)oc12`, the TGI in assay [1], in assay [2], in assay [3], in assay [4], in assay [5] and in assay [6] was more than 100 µM each time. Besides, the TGI in assay [7], in [8], in assay [9] and in [10] was more than 100 µM in each case. Further, the GI50 in [2] is more than 100 µM; in assay [4] it was more than 100 µM; in assay [7], more than 100 µM; in assay [9], 55.1 µM.
Turning to `COc1ccc(S(=O)(=O)Nc2ccc(-c3csc(N4C(=O)/C(=C/c5cccs5)N=C4c4ccccc4)n3)cc2)cc1Cl`, the TGI in [1] is 70.6 µM; in [2] it was more than 100 µM; in assay [3], more than 100 µM; in assay [4] it was 90.5 µM; in [5], more than 100 µM; in assay [6] it was 59.6 µM. Besides, the TGI in [7], in assay [8], in [9] and in [10] was more than 100 µM each time.
Regarding `COC(=O)[C@]1(Cc2ccc3ccccc3c2)CCCCCCN1C(=O)c1ccccc1`, the TGI is more than 47.1 µM in assay [1]; more than 45.2 µM in [2]; 30.3 µM in assay [3]; more than 53.2 µM in [4]; more than 53.5 µM in assay [5]; more than 45.9 µM in [6]. Further, the TGI in assay [7] was more than 54 µM; in [8], 25.9 µM; in assay [9], 54.7 µM; in assay [10], more than 60.3 µM.
